One data set has as its system EGFR. As to the kind of experiment: EGFR expression and phosphorylation in xenograft tumors (immunohistochemistry, Western blot). It counts as in vivo, athymic (nude) mice. The method, then:
FIG. 6B illustrates expression of EGFR and Akt. Tissue sections were obtained from human pancreatic cancer tumors growing in nude mice as described in FIG. 5, and stained for pEGFR and pAkt as described in Materials and Methods section (below). Middle, EGFR and Akt expression of pancreatic tumors from same crocetinic acid-treated and untreated control animals using Western Blot as described in FIG. 4B, was determined. Phophorylated (p-EGFR) and total protein of EGFR and phophorylated Akt and total Akt expressed as ratio between them normalized with b-actin was shown (bottom);
The immuno-Western blot analyses were the same as described earlier by Banerjee et al. (Reference 26). Briefly, MIA-PaCa-2 and BxPC-3 cells following treatment with or without crocetin and tumor samples were homogenized. […] Protein concentration was measured by using the Comassie blue reagent assay (Pierce, Rockford, Ill.). […] The antigen-antibody reactions were detected with HRP-conjugated anti-rabbit or anti-mouse IgG for one hour in room temperature. Immunoreactions were visualized by the ECL ([…]) chemiluminescence reagent kit (Pierce, Rockford, Ill.) and relative expression of proteins were calculated by densitometric analyses using ID image Analysis Software version 3.6 (Eastman Kodak Company, Rochester, N.Y.). […]
A general note: A western blot detects proteins with antibodies after separation by electrophoresis.

For data set [1], the system named is MIA-PaCa-2 xenograft tumor. The data set is described as follows: Apoptosis in xenograft tumors (cleaved caspase 3, TUNEL, Bax/Bcl-2). In kind it is in vivo, athymic (nude) mice. The note with it: xenograft tumors. As to the method: FIG. 6C illustrates apoptosis. Top, tumor tissues were processed for Cleaved Caspase 3 immunohistochemistry. […] Caspase 3, Bax and Bcl-2 (middle) expressions of pancreatic tumors from same crocetinic acid-treated and control animals using Western Blot were carried out and Bax/Bcl-2 ratio was also determined (bottom). Columns, mean from six different animals; bars, SD (B and C). *, P<0.05; **, P<0.001 versus untreated control (Student's t test);
To explore whether the regression of tumor growth by crocetin is due to inhibition of proliferation, apoptotic cell death or both, we first evaluated PCNA (proliferating cell nuclear antigen) expression and then EGFR expression in tumors using histochemical analysis. […] Next, apoptosis by TUNEL assay was investigated in the tumors of mice treated with or without crocetin.

For data set [2] the following is noted: in vivo; cited from earlier work.

In general, LD50 refers to the dose at which mortality reaches 50%. Turning to `CC(/C=C/C=C(\C)C(=O)O)=C\C=C\C=C(C)\C=C\C=C(/C)C(=O)O` [crocetin], in the data set on EGFR, the “EGFR activity (ratio of phosphorylated and unphosphorylated form) in tumors” value is listed as “significantly impaired”. The “EGFR expression and phosphorylation in tumors” value in the data set with EGFR (versus untreated) is given as “significantly reduced”. Moreover, the “ratio of Bax/Bcl-2 in pancreatic tumors” value in data set [1] (Western blot) is “significantly increased”. Moreover, the “TUNEL assay positive cells in tumors” value in data set [1] (versus untreated) is recorded as “elevated markedly”. In data set [2], the LD50 was 2 g/kg.

Values taken from US9889105B2, “In vivo method for treating, inhibiting, and/or prophylaxis of cancer, such as pancreatic cancer” (U.S. Department of Veterans Affairs, priority 2010, dated 2018).
